# Test results published in paper PMC4684214, “Timberol® Inhibits TAAR5-Mediated Responses to Trimethylamine and Influences the Olfactory Threshold in Humans” (PLoS ONE, 2015).
# Target: T1, hOR51E1 (Homo sapiens, UniProt Q8TCB6)
# T1 construct: gene OR51E1; recombinant receptor plasmid transfected in HANA3A cells; with G-alpha-olf, RTP1S and M3 muscarinic receptor
# T1 sequence (Q8TCB6 1-318): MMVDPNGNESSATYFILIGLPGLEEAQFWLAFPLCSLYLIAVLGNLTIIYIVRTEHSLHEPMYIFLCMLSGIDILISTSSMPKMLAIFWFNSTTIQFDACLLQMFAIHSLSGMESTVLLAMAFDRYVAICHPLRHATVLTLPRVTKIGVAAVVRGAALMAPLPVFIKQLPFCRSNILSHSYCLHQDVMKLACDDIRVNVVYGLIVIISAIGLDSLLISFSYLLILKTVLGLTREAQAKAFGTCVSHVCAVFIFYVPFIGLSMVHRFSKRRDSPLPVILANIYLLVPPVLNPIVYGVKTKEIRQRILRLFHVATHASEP
# Assay: Cre-luciferase reporter gene assay (cAMP)
# Format: cell-based
# Details: agonist; M3 muscarinic receptor co-expressed; 37°C, 4 h
# Text: Cre-luciferase reporter gene assay (cAMP) on hOR51E1 | (B) nonanoic acid and hOR51E1
smiles,measurement,value
CCCCCCCCC(=O)O [nonanoic acid],EC50,103 ± 23.1 µM
